Consider 17 compounds from US20140329679A1, “HERBICIDAL COMPOSITIONS COMPRISING TRIFLUOROME THANESULFONANILIDES AND SAFENERS” (priority 2011, published 2014).

What all share (assay type): in vivo
The test system of data set [1] is wheat (variety Hereward). The data set is described as follows: Pre-emergence safening on wheat, seed treated with safener, general crop injury. The settings on record: 250 g/ha compound of formula (I) sprayed the day after planting, evaluated after 21 days; for Percentage damage, wheat treated with cloquintocet-mexyl: seed treated with cloquintocet-mexyl at 0.25 g per kg seed, mean of two replicates; for Percentage damage, untreated wheat: seed without safener, mean % visual phytotoxicity of two replicates. As to the method: (§1) Maize (variety Claxxon) and wheat (variety Hereward) seeds were treated with a herbicide safener at a rate of 0.2 g safener per kg seed (maize) and 0.25 g safener per kg seed (wheat) prior to sowing. Treated and untreated seeds were sown into standard soil in troughs. The safeners used were N-(2-methoxybenzoyl)-4-Rmethylaminocarbonyl)aminoThenzenesulfonamide (safener A in Table 2) and cloquintocet-mexyl.
(§2) The day after planting the troughs were sprayed with an aqueous spray solution prepared by dissolving the technical active ingredient in an organic solvent and diluting with deionised water to give a final dose of 250 g/ha of a compound of formula (I).
(§3) The spray solution was applied with a cabinet tracksprayer with a flat fan nozzle (Teejet 11002VS) and an application volume of 200 L/ha (at 2 bar).
(§4) The test plants were then grown on in a glasshouse under controlled conditions (at 24/18° C. day/night; 16 hours light; 65% humidity) and watered twice a day. After 21 days the test was evaluated for general crop injury (100% equals total damage to plant; 0% equals no damage to plant).
(§5) Results are shown below in Table 2 as the mean % visual phytotoxicity of two replicates.

In data set [2] the test system is Maize (variety Claxxon). The data set is described as follows: Pre-emergence safening on corn, seed treated with safener, general crop injury. The settings on record: 250 g/ha compound of formula (I) sprayed the day after planting, evaluated after 21 days; for Percentage damage, corn treated with safener A: seed treated with safener A at 0.2 g per kg seed, mean of two replicates; for Percentage damage, untreated corn: seed without safener, mean % visual phytotoxicity of two replicates. How it is done: as §1, §2, §3, §4, §5

The subject of data set [3] is soya (variety Nikko). The data set is described as follows: Post-emergence crop safening on soya, general crop injury. The settings on record: compound of formula (I) alone at 200 g/ha, post-emergence spray at 2-3 leaf stage, evaluated after 21 days; 100% = total damage, 0% = no damage; single replicate. How it is done: Maize (variety Garland) and soya (variety Nikko) seeds were sown into standard soil in pots and cultivated under controlled conditions in a glasshouse (at 24/18° C. day/night; 16 hours light; 65% humidity). […] All the compounds used for the spray solution were present as technical material and the safeners were either an EC, SC or WP formulation respectively or technical material. In addition a non-ionic surfactant (Tween 20) was added to form a 0.25% v/v solution. The spray solution was applied with a cabinet tracksprayer with a flat fan nozzle (Teejet 11002VS) and an application volume of 200 L/ha (at 2 bar). The test plants were then grown on in a glasshouse under controlled conditions (at 24/18° C. day/night; 16 hours light; 65% humidity) and watered twice a day. […] Results are shown below in Table 3 as the mean % visual phytotoxicity of two replicates and in Table 4 as the mean % visual phytotoxicity of a single replicate.

Data set [4] concerns Maize (variety Garland). The data set is described as follows: Post-emergence crop safening on maize, general crop injury. Conditions: post-emergence spray at 2-3 leaves; 500 g/ha Compound 41 alone or with 100 g/ha safener; 0.25% v/v Tween 20; evaluated after 21 days; mean of two replicates. How it is done:
Maize (variety Garland) and soya (variety Nikko) seeds were sown into standard soil in pots and cultivated under controlled conditions in a glasshouse (at 24/18° C. day/night; 16 hours light; 65% humidity).
When the plants were at the vegetative stage of 2-3 leaves they were sprayed with an aqueous spray solution containing a compound of formula (I) alone and in combination with a number of different herbicide safeners. All the compounds used for the spray solution were present as technical material and the safeners were either an EC, SC or WP formulation respectively or technical material. In addition a non-ionic surfactant (Tween 20) was added to form a 0.25% v/v solution.
as §3, §4
Results are shown below in Table 3 as the mean % visual phytotoxicity of two replicates and in Table 4 as the mean % visual phytotoxicity of a single replicate.

SMILES strings stand for the structures.

Take `O=C1CCCN1Cc1ccccc1NS(=O)(=O)C(F)(F)F` [Compound 1]: in data set [1], the “Percentage damage, wheat treated with cloquintocet-mexyl” value (from here on “Percentage damage, wheat treated”) is on record as 5% and the “Percentage damage, untreated wheat” value worked out at 35%. In data set [2], the “Percentage damage, corn treated with safener A” value (“Percentage damage, corn treated” below) worked out at 5% and the “Percentage damage, untreated corn” value came to 30%.
Take `O=C1CCCCN1Cc1ccccc1NS(=O)(=O)C(F)(F)F` [Compound 5]: in data set [1], the “Percentage damage, wheat treated” value came out at 20% and the “Percentage damage, untreated wheat” value stood at 45%. Moreover, in data set [2], the “Percentage damage, corn treated” value is listed as 25% and the “Percentage damage, untreated corn” value came out at 55%.
Turning to `CCCC(=O)N(c1ccccc1CN1CCCCC1=O)S(=O)(=O)C(F)(F)F` [Compound 6], in data set [1], the “Percentage damage, wheat treated” value came out at 10% and the “Percentage damage, untreated wheat” value is listed as 30%. In data set [2], the “Percentage damage, corn treated” value is recorded as 5% and the “Percentage damage, untreated corn” value was 80%.
In the case of `CCOC(=O)N(c1ccccc1CN1CCCCC1=O)S(=O)(=O)C(F)(F)F` [Compound 7], in data set [1], the “Percentage damage, wheat treated” value is given as 30% and the “Percentage damage, untreated wheat” value was 50%. In addition, in data set [2], the “Percentage damage, corn treated” value was determined as 10% and the “Percentage damage, untreated corn” value is listed as 98%.
For `CCC(=O)N(c1ccccc1CN1CCCC(SC)C1=O)S(=O)(=O)C(F)(F)F` (stereo not shown) [Compound 16], in data set [1], the “Percentage damage, wheat treated” value is on record as 15% and the “Percentage damage, untreated wheat” value came to 40%. Moreover, in data set [2], the “Percentage damage, corn treated” value turned out to be 2.5% and the “Percentage damage, untreated corn” value was determined as 86%.
For the compound `CC1(C)CC(=O)N(Cc2ccccc2NS(=O)(=O)C(F)(F)F)O1` [Compound 20], in data set [1], the “Percentage damage, wheat treated” value was determined as 15% and the “Percentage damage, untreated wheat” value is reported as 25%. In addition, in data set [2], the “Percentage damage, corn treated” value is reported as 0% and the “Percentage damage, untreated corn” value is 40%.
As to `CC1(C)CC(=O)N(Cc2ccccc2N(C(=O)OCCl)S(=O)(=O)C(F)(F)F)O1` [Compound 21], in data set [1], the “Percentage damage, wheat treated” value is 5% and the “Percentage damage, untreated wheat” value was 20%. In addition, in data set [2], the “Percentage damage, corn treated” value turned out to be 20% and the “Percentage damage, untreated corn” value was determined as 30%.
Take `O=C1COCCN1Cc1ccccc1NS(=O)(=O)C(F)(F)F` [Compound 41]: in data set [1], the “Percentage damage, wheat treated” value is 10% and the “Percentage damage, untreated wheat” value worked out at 35%. In data set [3], the “Percentage damage caused to soya (mean % visual phytotoxicity, general crop injury)” value was found to be 30%. Moreover, in data set [2], the “Percentage damage, corn treated” value was determined as 5% and the “Percentage damage, untreated corn” value was 80%. Moreover, in data set [4], the “Percentage damage caused to maize” value came out at 25%.
Consider `O=C1NCCCN1Cc1ccccc1NS(=O)(=O)C(F)(F)F` [Compound 53], for which, in data set [1], the “Percentage damage, wheat treated” value is 10% and the “Percentage damage, untreated wheat” value is 40%. In data set [2], the “Percentage damage, corn treated” value was found to be 5% and the “Percentage damage, untreated corn” value turned out to be 40%.
On to `CC1(C)CN(Cc2ccccc2NS(=O)(=O)C(F)(F)F)C(=O)O1` [Compound 85], for which, in data set [1], the “Percentage damage, wheat treated” value is on record as 15% and the “Percentage damage, untreated wheat” value was found to be 40%. Besides, in data set [2], the “Percentage damage, corn treated” value stood at 15% and the “Percentage damage, untreated corn” value stood at 65%.
For the compound `CC1(C(F)(F)F)CCN(Cc2ccccc2N(C(=O)OCCl)S(=O)(=O)C(F)(F)F)C(=O)O1` (stereo not shown) [Compound 102], in data set [1], the “Percentage damage, wheat treated” value turned out to be 0% and the “Percentage damage, untreated wheat” value is on record as 10%. Further, in data set [2], the “Percentage damage, corn treated” value is reported as 0% and the “Percentage damage, untreated corn” value turned out to be 5%.
Consider `CCOC(=O)N(c1ccccc1CN1CCC(C)(C(F)(F)F)OC1=O)S(=O)(=O)C(F)(F)F` (stereo not shown) [Compound 103], for which, in data set [1], the “Percentage damage, wheat treated” value was determined as 0% and the “Percentage damage, untreated wheat” value is reported as 15%. In data set [2], the “Percentage damage, corn treated” value is reported as 0% and the “Percentage damage, untreated corn” value worked out at 10%.
On to `CCC1(C(F)(F)F)CCN(Cc2ccccc2NS(=O)(=O)C(F)(F)F)C(=O)O1` (stereo not shown) [Compound 106], for which the “Percentage damage caused to soya (mean % visual phytotoxicity, general crop injury)” value in data set [3] was 15%.
`CCOC(=O)N(c1ccccc1CN1CCCCS1(=O)=O)S(=O)(=O)C(F)(F)F` [Compound 133]: in data set [1], the “Percentage damage, wheat treated” value stood at 5% and the “Percentage damage, untreated wheat” value is 25%. In data set [2], the “Percentage damage, corn treated” value was found to be 10% and the “Percentage damage, untreated corn” value amounted to 20%.
On to `CN1CCCN(Cc2ccccc2N(C(=O)OCCl)S(=O)(=O)C(F)(F)F)S1(=O)=O` [Compound 145], for which, in data set [1], the “Percentage damage, wheat treated” value came to 5% and the “Percentage damage, untreated wheat” value stood at 10%. For the same compound, in data set [2], the “Percentage damage, corn treated” value is recorded as 0% and the “Percentage damage, untreated corn” value was 20%.
As to `CCOC(=O)N(c1ccccc1CN1CCCN(C)S1(=O)=O)S(=O)(=O)C(F)(F)F` [Compound 146], in data set [1], the “Percentage damage, wheat treated” value is recorded as 17.5% and the “Percentage damage, untreated wheat” value is on record as 40%. Also, in data set [2], the “Percentage damage, corn treated” value is 0% and the “Percentage damage, untreated corn” value is reported as 22.5%.
With `CC(C)COC(=O)N(c1ccccc1CN1CCCN(C)S1(=O)=O)S(=O)(=O)C(F)(F)F` [Compound 147], in data set [1], the “Percentage damage, wheat treated” value came to 5% and the “Percentage damage, untreated wheat” value stood at 25%. In data set [2], the “Percentage damage, corn treated” value came out at 2.5% and the “Percentage damage, untreated corn” value came to 15%.
